The subject of assay [1] is mice. Description: Bleomycin-induced inflammation and cell counts, 10 days (Example 5). As to conditions: 3, 10, 30 mpk PO, Day 10. It is filed as in vivo, mouse. On the procedure: At Day 0, prophylactic treatment of mice with Compound 3 or pirfenidone by PO was performed. From Day 0 to Day 9, the prophylactically treated mice were intratracheally instilled with bleomycin. At Day 10, the mice were euthanized.
As shown in FIGS. 5A-5G, the impact of Compound 3 at 3 mpk, 10 mpk, and 30 mpk as compared to normal control, treatment-free control (bleomycin), and pirfenidone (comparative) at 100 mpk on various cell counts associated with inflammation was evaluated. The bar graphs compare alveolar macrophage counts, neutrophil counts, lymphocyte counts, inflammation score, eotaxin (BALF), INFγ (lung), and IL-6 (lung).

For assay [2], the system named is human neutrophils. Description: fMLP induced neutrophil chemotaxis. It is filed as cell-based. The note with it: for IC50: fMLP (100 nM), Donor 1. On the procedure:
(§1) Freshly isolated healthy human neutrophils were isolated and utilized. The neutrophils were treated with IL-8 at 2 nM or fMLP at 100 nM to induced chemotaxis.
(§2) FIGS. 7A and 7B display the percentage of inhibition of 2 nm of IL-8 induced chemotaxis at different compound concentrations of Compound 3 as compared to Navarixin (comparative). FIGS. 7C and 7D display the percentage of inhibition of 100 nm fMLP induced chemotaxis at different compound concentrations of Compound 3 as compared to HCH6-1 (comparative). Table 3 below provides the IC50 values for each stimulus, providing a comparative measure of the compounds' efficacy.

The subject of assay [3] is mice. As to the kind of experiment: Bleomycin-induced pulmonary fibrosis model, prophylactic, 21 days (Example 2). Format: in vivo, mouse. The note with it: PO, Day 21. The method, then: At Day 0, prophylactic treatment of mice with Compound 3 or pirfenidone by PO was performed. From Day 0 to Day 20, the prophylactically treated mice were intratracheally instilled with bleomycin. At Day 21, the mice were euthanized.
As depicted in FIGS. 1A-1F, a series of bar graphs illustrate the reduction in fibrotic symptoms in a bleomycin-induced pulmonary fibrosis model upon treatment with Compound 3 at 1 mpk, 3 mpk, 10 mpk, and 100 mpk as compared to a normal control, treatment-free control (bleomycin), and pirfenidone (comparative) at 100 mpk. Parameters such as collagen deposition, collagen accumulation, collagen fiber formation, inflammatory cytokine expression, and inflammatory cell infiltration were measured.

For assay [4], the system named is human neutrophils. As to the kind of experiment: IL-8 induced neutrophil chemotaxis. It is filed as cell-based. The note with it: for IC50: IL-8 (2 nM). On the procedure:
as §1, §2

The test system of assay [5] is mice. Description: LPS-induced acute lung injury model (Example 4). Format: in vivo, mouse. As to conditions: 30 mpk PO, aerosolized LPS 1 mg/mL, 4 hours. On the procedure:
At time point −1 hour, prophylactic treatment of mice by PO with Compound 3 or dexamethasone was performed. From time point −0.5 hours to 0 hours, neutrophil activation was induced with aerosolized LPS at 1 mg/mL. At timepoint 4 hours, blood, BALF, and lung tissue were harvested.
FIGS. 4A-4G present the effects of Compound 3 at 30 mpk as compared to naive control, treatment-free control (LPS), and dexamethasone (comparative) at 5 mpk on inflammatory cytokines in a lipopolysaccharide (LPS)-induced acute lung injury model. The bar graphs compare the levels of TNF-α, IL-6, IL-36γ, Total cell count (BALF), neutrophils (BALF), neutrophils (blood), and eosinophils (BALF), MIP-2.

The test system of assay [6] is human precision-cut lung slices. As to the kind of experiment: Inflammation and fibrosis biomarkers in human precision-cut lung slices. As to conditions: 5 μM and 50 uM, hPCLS. Format: cell-based. The method, then:
Cryopreserved human precision-cut lung slices (hPCLS) were prepared and used to analyze biomarkers in inflammatory and fibrotic models. Information of the donors that provided the hPCLS is provided below.
FIGS. 6A-6D illustrate the dose-dependent impact of Compound 3 at 5 μM and 50 uM as compared to vehicle control, nintedanib at 2.5 μM (comparative), and pirfenidone at 2.5 uM (comparative) on biomarkers associated with inflammation and fibrosis in human pulmonary cells.

The subject of assay [7] is mice. Description: Imiquimod (IMQ) psoriasis mouse model. It is filed as in vivo. The note with it: 30 mpk P.O., BID, 5% imiquimod, Day 0 to Day 7. The method, then:
From Day 0 to Day 7, 5% w/w of imiquimod (IMQ) in water was administered to the mice by PO to induce psoriasis. From Day 0 to Day 7, mice were treated with Compound 1, clobetasol, or dexamethasone. At Day 7, the mice were euthanized.
FIGS. 10A and 10B illustrate the effect of Compound 1 at 30 mpk (P.O., BID) as compared to naive control, vehicle control, 0.05% clobetasol, and dexamethasone at 1 mpk (P.O., QD) on psoriasis in a mouse model. The graphs show the changes in ear thickness and Psoriasis Area and Severity Index (PASI) score over time.

Assay [8] concerns mice. Description: Chlorhexidine gluconate-induced peritoneal fibrosis model. As to conditions: 10, 30, 100 mpk, 0.1% CG, Day 22. Format: in vivo, mouse. The method, then: From Day 1 to Day 21, 0.1% w/w of chlorhexidine gluconate (CG) in water was administered, every other day, to the mice by PO to induce peritoneal fibrosis. From Day 1 to Day 21, mice were treated with Compound 1 or an inhibitor of TGFβ receptor I (ALK5) (SB525334). At Day 22, the mice were euthanized.
FIGS. 9A and 9B illustrate the effect of Compound 1 at 10, mpk, 30, mpk, and 100 mpk as compared to sham control, 0.1% chlorhexidine gluconate (CG) and vehicle, and an inhibitor of TGFβ receptor I (ALK5) (SB525334) at 30 mpk (comparative), and mesalamine at 50 mpk (comparative) on average peritoneal thickness and α-SMA expression in a mouse model of peritoneal fibrosis.

The subject of assay [9] is mice. As to the kind of experiment: DSS mouse model of colitis. Format: in vivo. The note with it: 30 mpk, 2% DSS, Day 8. On the procedure:
From Day-3 to Day 8, mice were treated with Compound 1, fingolimod, or mesalamine. From Day-3 to Day 0, mice were randomized and acclimated to their environment while assessing a disease activity index (DAI). At Day 1, 2% w/w of DSS in water was administered to the mice by PO. From Day 1 to Day 7, DAI continued to be assessed. At Day 8, the mice were euthanized post the final dose of Compound 1, fingolimod, or mesalamine.
FIGS. 8A-8D present the efficacy of Compound 1 at 30 mpk as compared to vehicle control, DSS control, fingolimod at 1 mpk (comparative), and mesalamine at 50 mpk (comparative) in a DSS mouse model of colitis. The graphs show the effect of Compound 1 on disease activity index, stool consistency, rectal bleeding index, and combined histopathology.

For assay [10], the system named is mice. As to the kind of experiment: MC903-induced atopic dermatitis mouse model (Example 11). The note with it: 3, 10, 30 mpk PO, BID, MC903, Day 14. It is filed as in vivo. On the procedure:
From Day 1 to Day 14, 2 nmol in 100% ethanol, 50 μl/mouse/back skin (MC903) was administered every other day to mice to induce atopic dermatitis. From Day 1 to Day 14, mice were treated with Compound 1 or clobetasol. At Day 14, the mice were euthanized.
FIGS. 11A-11C illustrate the effects of Compound 1 at 3 mpk, 10 mpk, and 30 mpk (PO, BID) as compared to normal control, vehicle control, and 0.05% clobetasol (topical, QD) (comparative) on atopic dermatitis in a mouse model.

In assay [11] the test system is mice. Description: Bleomycin-induced pulmonary fibrosis model, prophylactic and treatment groups (Example 3). It is filed as in vivo, mouse. The method, then: Prophylactic group (P): At Day 0, prophylactic treatment of mice (P) with Compound 1 or pirfenidone by PO was performed. From Day 0 to Day 20, the prophylactically treated mice (P) were intratracheally instilled with bleomycin. At Day 21, the mice (P) were euthanized.
Treatment group (T): Likewise, from Day 0 to Day 7, naïve mice (T) were intratracheally instilled with bleomycin. At Day 7, the naïve mice were treated with Compound 1. Bleomycin instillation continued to Day 20. At Day 21, the mice (T) were euthanized.
FIGS. 2A-2D and FIGS. 3A-3G illustrate the therapeutic effects of Compound 1 at 10 mpk (P), 30 mpk (P), 100 mpk (P), and 100 mpk (T), as compared to a normal control, treatment-free control (bleomycin), and pirfenidone (comparative) at 100 mpk (P) in a bleomycin-induced model of pulmonary fibrosis.

The mark [12] stands for this setting: 10, 30, 100 mpk (P) and 100 mpk (T), bleomycin.

Non-standard residues stand in square brackets, D forms with d. Residues, ends and D or L forms follow the SMILES beside them. *: point of attachment. Bz = O=C(c1ccccc1)*

The term IC50 denotes the concentration that gives 50% inhibition. As to `C[C@@]12CCC(=O)N[C@@](C)(C#N)[C@H]1CC[C@@]1(C)O[C@H](C3=CCOC3=O)C[C@@H]21` [Compound 3, (2S,3aR,5aS,6R,10aR,10bS)-3a,6,10a-trimethyl-8-oxo-2-(2-oxo-2,5-dihydrofuran-3-yl) dodecahydro-2H-benzofuro[5,4-c]azepine-6-carbonitrile], the “inflammation and cell counts” value in the assay on mice [1] is “reduction in inflammation and cell counts”. In addition, the IC50 in the assay with human neutrophils [2] (Homo sapiens, Neutrophil) is 798 nM. Moreover, the “inhibition of neutrophil chemotaxis” value with human neutrophils [2] (induced by fMLP at 100 nM) is reported as “concentration-dependent inhibition”. Also, in the assay on mice [3], the collagen accumulation result was “notable decrease”, the collagen deposition result is listed as “notable decrease”, the collagen fiber formation result is reported as “notable decrease” and the inflammatory cell infiltration result is recorded as “notable decrease”. In addition, the inflammatory cytokine expression entry with mice [3] is recorded as “notable decrease”. In the assay on human neutrophils [4] (Homo sapiens, Neutrophil, All donors), this compound yielded an IC50 of 2060 nM. This compound gave an IC50 with human neutrophils [4] (Homo sapiens, Neutrophil, Donor 1) of 1410 nM. Besides, the concentration for half-maximal inhibition (IC50) in the assay with human neutrophils [4] (Homo sapiens, Neutrophil, Donor 2) was 3160 nM. Also, the 50% inhibitory concentration (IC50) in the assay with human neutrophils [4] (Homo sapiens, Neutrophil, Donor 3) came to 1620 nM. The “inhibition of neutrophil chemotaxis” value with human neutrophils [4] (induced by IL-8 at 2 nM) is reported as “concentration-dependent inhibition”. Besides, the cytokine levels result in the assay on mice [5] is given as “dose-dependent reduction in cytokine levels”. In addition, in assay [6], the IL-6 level entry is “corresponding decrease”, the IL-8/CXCL8 level result is “corresponding decrease” and the MCP-1/CCL-2 level result is given as “corresponding decrease”.

For the compound `C[C@@]1(C#N)[C@H](O)CC[C@]2(C)[C@@H]1CC[C@@]1(C)O[C@H](C3=CCOC3=O)C[C@@H]21` [Compound 1, (2S,3aR,5aS,6R,7R,9aR,9bS)-7-hydroxy-3a,6,9a-trimethyl-2-(2-oxo-2,5-dihydrofuran-3-yl) dodecahydronaphtho[2,1-b]furan-6-carbonitrile], in the assay on mice [7], the skin condition result is “improvements in skin condition” and the “symptoms (ear thickness, PASI score)” value is given as “reduction in symptoms”. In the assay with mice [8], the average peritoneal thickness entry is “reduction” and the α-SMA expression entry was “reduction”. In the assay with mice [9], the “symptoms of colitis, such as weight loss and increased disease severity” value is on record as “effectively mitigate the symptoms of colitis”. Moreover, in the assay with mice [10], the dermatitis severity result was “decrease in dermatitis severity” and the skin thickness result is given as “decrease”. Further, in the assay with mice [11] (setting [12]), the Ashcroft score result was “lower the Ashcroft score”, the hydroxyproline content entry is given as “reduce hydroxyproline content” and the “inflammatory cell infiltration in lung tissue” value is on record as “decrease inflammatory cell infiltration”. Also, the “fibrosis and lung tissue morphology (histology)” value in the assay on mice [11] (H&E staining, 100× magnification, compared to control) was “reduced fibrosis and improved lung tissue morphology”.

The compound `COC(=O)[C@@H](Cc1ccccc1)NC(=O)[C@H](Cc1c[nH]c2ccccc12)NC(=O)c1ccccc1` [HCH6-1, reference compound] (Bz-Trp-[dF]-OMe) came in with a half-inhibitory concentration (IC50) with human neutrophils [2] of 452 nM.

As to `CC[C@@H](Nc1c(Nc2cccc(C(=O)N(C)C)c2O)c(=O)c1=O)c1ccc(C)o1` [Navarixin, reference compound], the half-maximal inhibitory concentration (IC50) was 2360 nM with human neutrophils [4] (All donors), 1230 nM with human neutrophils [4] (Donor 1), 2690 nM in the assay with human neutrophils [4] (Donor 2) and 3160 nM in the assay with human neutrophils [4] (Donor 3).

Values taken from patent publication US20260365662A1, “ISOANDROGRAPHOLIDE ANALOGS AND METHOD FOR TREATMENT USING THE SAME” (Enveda Therapeutics, Inc., priority 2023, published 2026).
